Experiment [1] relates to Monographella nivalis (Microdochium nivale). The experiment is described as follows: Monographella nivalis (Microdochium nivale) / liquid culture (foot rot cereals). It is filed as cell-based. Particulars: 96 h, 200 ppm in the formulation, inhibition of growth determined photometrically 4-5 days after application, compared to untreated control, read-out: disease control. The protocol: Monographella nivalis (Microdochium nivale)/Liquid Culture (Foot Rot Cereals) Conidia of the fungus from cryogenic storage are directly mixed into nutrient broth (PDB potato dextrose broth). After placing a (DMSO) solution of test compound into a microtiter plate (96-well format), the nutrient broth containing the fungal spores is added. The test plates are incubated at 24° C. and the inhibition of growth is determined photometrically 4-5 days after application.

The subject of experiment [2] is Botryotinia fuckeliana (Botrytis cinerea). Description: Botryotinia fuckeliana (Botrytis cinerea) / liquid culture (gray mould). The experiment is classed as cell-based. Particulars: 72 h, 200 ppm in the formulation, inhibition of growth determined photometrically 3-4 days after application, compared to untreated control, read-out: disease control. The protocol: Botryotinia fuckeliana (Botrytis cinerea)/Liquid Culture (Gray Mould) Conidia of the fungus from cryogenic storage are directly mixed into nutrient broth (Vogels broth). After placing a (DMSO) solution of test compound into a microtiter plate (96-well format), the nutrient broth containing the fungal spores is added. The test plates are incubated at 24° C. and the inhibition of growth is determined photometrically 3-4 days after application.

Experiment [3] relates to Mycosphaerella graminicola (Septoria tritici). Description: Mycosphaerella graminicola (Septoria tritici) / liquid culture (Septoria blotch). The experiment is classed as cell-based. Particulars: Zymoseptoria tritici, 96 h, 200 ppm in the formulation, inhibition of growth determined photometrically 4 to 5 days after application, compared to untreated control, read-out: disease control. The protocol:
Mycosphaerella graminicola (Septoria tritici)/Liquid Culture (Septoria Blotch) Conidia of the fungus from cryogenic storage are directly mixed into nutrient broth (PDB potato dextrose broth). After placing a (DMSO) solution of test compound into a microtiter plate (96-well format), the nutrient broth containing the fungal spores is added. The test plates are incubated at 24° C. and the inhibition of growth is determined photometrically 4 to 5 days after application.

Experiment [4] deals with Mycosphaerella arachidis (Cercospora arachidicola). Description: Mycosphaerella arachidis (Cercospora arachidicola) / liquid culture (early leaf spot). Particulars: 96 h, 200 ppm in the formulation, inhibition of growth determined photometrically 4-5 days after application, compared to untreated control, read-out: disease control. It is filed as cell-based. The protocol: Mycosphaerella arachidis (Cercospora arachidicola)/Liquid Culture (Early Leaf Spot) Conidia of the fungus from cryogenic storage are directly mixed into nutrient broth (PDB potato dextrose broth). After placing a (DMSO) solution of test compound into a microtiter plate (96-well format), the nutrient broth containing the fungal spores is added. The test plates are incubated at 24° C. and the inhibition of growth is determined photometrically 4-5 days after application.

For experiment [5], the system named is Glomerella lagenarium (Colletotrichum lagenarium). Description: Glomerella lagenarium (Colletotrichum lagenarium) / liquid culture (anthracnose). It is filed as cell-based. The settings on record: Colletotrichum orbiculare, 72 h, 200 ppm in the formulation, inhibition of growth measured photometrically 3 to 4 days after application, compared to untreated control, read-out: disease control. The method, then:
Glomerella lagenarium (Colletotrichum lagenarium)/Liquid Culture (Anthracnose) Conidia of the fungus from cryogenic storage are directly mixed into nutrient broth (PDB potato dextrose broth). After placing a (DMSO) solution of test compound into a microtiter plate (96-well format), the nutrient broth containing the fungal spores is added. The test plates are incubated at 24° C. and the inhibition of growth is measured photometrically 3 to 4 days after application.

Experiment [6] relates to Phaeosphaeria nodorum (Septoria nodorum). The experiment is described as follows: Phaeosphaeria nodorum (Septoria nodorum) / wheat / leaf disc preventative (glume blotch). It is filed as in vivo. The settings on record: 200 ppm in the formulation; wheat leaf segments cv. Kanzler; compared to untreated control; 5-7 days after application. The method, then: Phaeosphaeria nodorum (Septoria nodorum)/Wheat/Leaf Disc Preventative (Glume Blotch) Wheat leaf segments cv. Kanzler are placed on agar in a multiwell plate (24-well format) and sprayed with the formulated test compound diluted in water. The leaf disks are inoculated with a spore suspension of the fungus 2 days after application. The inoculated test leaf disks are incubated at 20° C. and 75% rh under a light regime of 12 h light/12 h darkness in a climate cabinet and the activity of a compound is assessed as percent disease control compared to untreated when an appropriate level of disease damage appears in untreated check leaf disks (5-7 days after application).

Experiment [7] deals with Blumeria graminis f. Sp. tritici (Erysiphe graminis f. Sp. tritici). Description: Blumeria graminis f. sp. tritici / wheat / leaf disc preventative (powdery mildew on wheat). It is filed as in vivo. The settings on record: 200 ppm in the formulation; wheat leaf segments cv. Kanzler; compared to untreated control; 6-8 days after application. The source says:
Blumeria graminis f. Sp. tritici (Erysiphe graminis f. Sp. tritici)/Wheat/Leaf Disc Preventative (Powdery Mildew on Wheat) Wheat leaf segments cv. Kanzler are placed on agar in a multiwell plate (24-well format) and sprayed with the test compound formulated with DMSO and Tween20 and diluted in water. The leaf disks are inoculated by shaking powdery mildew infected plants above the test plates 1 day after application.

`COc1ccnc(C(=O)N[C@@H](C)C(=O)OC2CCC2(c2ccccc2)c2ccccc2)c1O` (stereo partly drawn) [I.k.02, (2,2-diphenyl cyclobutyl) (2S)-2-[(3-hydroxy-4-methoxy-pyridine-2-carbonyl)amino]propanoate]: the inhibition of growth at 200 ppm in experiment [1], in experiment [2], in experiment [3], in experiment [4] and in experiment [5] was ≥ 80% each time.
On to `COc1ccnc(C(=O)N[C@@H](C)C(=O)OC2CCC2(c2ccccc2C)c2ccccc2C)c1O` (stereo partly drawn) [I.o.02, [2,2-bis(o-tolyl)cyclobutyl] (2S)-2-[(3-hydroxy-4-methoxy-pyridine-2-carbonyl)amino]propanoate], for which the disease control result in experiment [6] is “at least 80%”. The inhibition of growth at 200 ppm in experiment [1], in experiment [3], in experiment [4] and in experiment [5] was ≥ 80% in each case.
Turning to `COc1cccc(C2(c3cccc(OC)c3)CCC2OC(=O)[C@H](C)NC(=O)c2nccc(OC)c2O)c1` (some centres unmarked) [I.t.02], the inhibition of growth at 200 ppm in experiment [1], in experiment [2], in experiment [3], in experiment [4] and in experiment [5] was ≥ 80% in each case. For the same compound, the disease control entry in experiment [7] is “at least 80%”.
As to `COc1ccnc(C(=O)N[C@@H](C)C(=O)OC2CCC2(c2ccc(F)cc2)c2ccc(F)cc2)c1O` (stereo partly drawn) [I.u.02, [2,2-bis(4-fluorophenyl)cyclobutyl] (2S)-2-[(3-hydroxy-4-methoxy-pyridine-2-carbonyl)amino]propanoate], the inhibition of growth at 200 ppm in experiment [1], in experiment [2], in experiment [3], in experiment [4] and in experiment [5] was ≥ 80% in each case.
For the compound `COc1ccnc(C(=O)N[C@@H](C)C(=O)OC2CCC2(c2ccc(F)cc2)c2ccc(F)cc2)c1OC(C)=O` (stereo partly drawn) [I.u.14, [2,2-bis(4-fluorophenyl)cyclobutyl] (2S)-2-[(3-acetoxy-4-methoxy-pyridine-2-carbonyl)amino]propanoate], the inhibition of growth at 200 ppm in experiment [1], in experiment [2], in experiment [3], in experiment [4] and in experiment [5] was ≥ 80% in each case.
